Experimental data: US11976083B2, “Inhibitors of peptidylarginine deiminases” (Gilead Sciences, Inc., priority 2020, dated 2024)

Biological target: T1, human PAD4 (Homo sapiens, UniProt Q9UM07)
T1 construct: human PAD4 (NM_012387), A2-P663, was PCR amplified; His-SUMO (N, cleaved yes); made in house; host or cells: E. coli BL21(DE3)
Assay: In vitro PAD4 BAEE biochemical assay
Conditions: BAEE substrate 3 mM, 5 nM PAD4, 2 mM calcium chloride; geometric mean of multiple experiments
How it was run: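 PAD4 5 nM, CaCl2 2 mM, BAEE 3 mM final; 50 mM MOPS pH 7.6, 50 mM NaCl, 0.05% Tween-20, 2 mM DTT. Cpd + enzyme 30 min 25 °C; substrate 2 h 25 °C; EDTA stop; OPA detection 1 h. IC50 4-parameter fit.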

T1 sequence (Q9UM07 2-663): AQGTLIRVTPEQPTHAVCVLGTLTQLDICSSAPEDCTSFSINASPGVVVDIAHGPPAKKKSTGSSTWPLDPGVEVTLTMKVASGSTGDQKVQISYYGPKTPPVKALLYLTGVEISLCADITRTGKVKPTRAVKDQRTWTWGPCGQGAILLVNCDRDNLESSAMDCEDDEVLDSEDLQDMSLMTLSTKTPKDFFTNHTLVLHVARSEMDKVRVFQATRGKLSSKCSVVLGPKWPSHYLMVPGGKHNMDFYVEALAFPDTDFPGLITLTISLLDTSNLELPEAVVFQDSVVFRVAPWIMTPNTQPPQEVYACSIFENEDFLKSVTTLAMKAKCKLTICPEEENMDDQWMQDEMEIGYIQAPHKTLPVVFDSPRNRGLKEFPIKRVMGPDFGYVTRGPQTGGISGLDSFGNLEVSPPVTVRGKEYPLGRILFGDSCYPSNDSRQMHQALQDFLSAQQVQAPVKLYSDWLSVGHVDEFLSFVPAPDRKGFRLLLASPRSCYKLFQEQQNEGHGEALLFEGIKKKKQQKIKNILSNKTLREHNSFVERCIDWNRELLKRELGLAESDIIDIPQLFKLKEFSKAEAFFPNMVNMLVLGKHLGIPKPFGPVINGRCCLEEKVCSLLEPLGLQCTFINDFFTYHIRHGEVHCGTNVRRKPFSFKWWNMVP

SMILES | IC50 [nM]
COc1cc(C(=O)N[C@H]2CNCC[C@@H]2F)cc2nc(-c3cc4ccc5nc4n3CCCCCc3cccc(C)c3C(=O)N[C@@H]5C)n(C)c12 [Example 363, 2-[(2~{R})-2,6-dimethyl-4-oxo-3,16,22-triazatetracyclo[14.5.2.0^{5,10}.0^{19,23}]tricosa-1(22),5(10),6,8,17,19(23),20-heptaen-17-yl]-~{N}-[(3~{S},4~{S})-4-fluoro-3-piperidyl]-7-methoxy-1-methyl-benzimidazole-5-carboxamide] | 110
COc1cc(C(=O)N2CC[C@@H](OC)[C@@H](N)C2)cc2nc(-c3cc4ccc5nc4n3CC(F)(F)CCCC(C)(C)C(=O)N[C@@H]5C)n(C)c12 [Example 587, (10~{R})-16-[5-[(3~{S},4~ {R})-3-amino-4-methoxy-piperidine-1-carbonyl]-7-methoxy-1-methyl-benzimidazol-2-yl]-3,3-difluoro-7,7,10-trimethyl-1,9,18-triazatricyclo[9.5.2.0^ {14,17}]octadeca-11(18),12,14(17), 15-tetraen-8-one] | 163
COc1cc(C(=O)N2CC[C@@H](OC(F)F)[C@@H](N)C2)cc2nc(-c3cc4ccc5nc4n3CCCCCc3ccc(Cl)nc3C(=O)N[C@@H]5C)n(C)c12 [Example 784, (2~{R})-17-[5-[(3~{S},4~{R})-3-amino-4-(difluoromethoxy)piperidine-1-carbonyl]-7-methoxy-1-methyl-benzimidazol-2-yl]-7-chloro-2-methyl-3,6,16,22-tetrazatetracyclo[14.5.2.0^ {5,10}.0^{19,23}]tricosa-1(21),5(10),6,8,17,19,22-heptaen-4-one] | 97
COc1cc(C(=O)N2[C@H]3CC[C@@H]2[C@H](N)C3)cc2nc(-c3cc4ccc5cc4n3CCCCCCC3(CC3)C(=O)N[C@@H]5C)n(C3CC3)c12 [Example 225, (11~{R})-17-[5-[(1~{R},2~{R},4~{S})-2-amino-7-azabicyclo[2.2.1]heptane-7-carbonyl]-1-cyclopropyl-7-methoxy-benzimidazol-2-yl]-11-methyl-spiro[1,10-diazatricyclo[10.5.2.0^{15,18}]nonadeca-12(19),13,15(18),16-tetraene-8,1′-cyclopropane]-9-one] | 73
COc1cc(C(=O)N2CC[C@@H](OC)[C@@H](N)C2)cc2nc(-c3cc4ccc5nc4n3CCCCCc3nn(C)nc3C(=O)N[C@@H]5C)n(C)c12 [Example 570, (2~{R})-16-[5-[(3~{S}, 4~{R})-3-amino-4-methoxy-piperidine-1-carbonyl]-7-methoxy-1-methyl-benzimidazol-2-yl]-2,7-dimethyl-3,6,7,8,15,21-hexazatetracyclo[13.5.2.0^ {5,9}.0^{18,22}] docosa-1(21),5,8,16,18(22), 19-hexaen-4-one] | 94
COc1cc(C(=O)N2CCC[C@@H](N)C2)cc2nc(-c3cc4ccc5nc4n3C[C@H]3C[C@H]3COC[C@H](C)C(=O)N[C@@H]5C)n(C)c12 (single isomer, unassigned) [Example 313, (3˜{S},5˜{R},9˜{S},12˜{R})-18-[5-[(3˜{R})-3-aminopiperidine-1-carbonyl]-7-methoxy-1-methyl-benzimidazol-2-yl]-9,12-dimethyl-7-oxa-1,11,20-triazatetracyclo[11.5.2.0^{3,5}.0^{16,19}]icosa-13(20),14,16(19),17-tetraen-10-one] | 85
COc1cc(C(=O)N2[C@H]3CC[C@@H]2[C@H](N)C3)cc2nc(-c3cc4ccc5nc4n3CCCCCCC3(CCC3)C(=O)N[C@@H]5C)n(C)c12 [Example 278, (11~{R})-17-[5-[(1~{R},2~{R},4~{S})-2-amino-7-azabicyclo[2.2.1]heptane-7-carbonyl]-7-methoxy-1-methyl-benzimidazol-2-yl]-11-methyl-spiro[1,10,19-triazatricyclo[10.5.2.0^{15,18}]nonadeca-12(19),13,15(18),16-tetraene-8,1′-cyclobutane]-9-one] | 47
COc1cc(C(=O)N2[C@H]3CC[C@@H]2[C@H](N)C3)cc2nc(-c3cc4ccc5cc4n3CCCC3CCN(CC3)C(=O)c3ccccc3-5)n(C)c12 [Example 101, 17-[5-[(1~{R},2~{R},4~{S})-2-amino-7-azabicyclo[2.2.1]heptane-7-carbonyl]-7-methoxy-1-methyl-benzimidazol-2-yl]-9,16-diazapentacyclo[14.5.2.2^{9,12}.0^{2,7}.0^ {19,23}]pentacosa-1(22),2,4,6,17,19(23),20-heptaen-8-one] | 7450
COc1cc(C(=O)N2CCC[C@@H](N)C2)cc2nc(-c3cc4ccc5nc4n3CCCCCc3c(cnn3C)C(=O)N[C@@H]5C)n(C)c12 [Example 170, (2~{R})-16-[5-[(3~{R})-3-aminopiperidine-1-carbonyl]-7-methoxy-1-methyl-benzimidazol-2-yl]-2,8-dimethyl-3,7,8,15,21-pentazatetracyclo[13.5.2.0^{5,9).0^{18,22}] docosa-1(21),5(9),6,16,18(22),19-hexaen-4-one] | 118
COc1cc(C(=O)N2CC[C@@H](O)[C@@H](N)C2)cc2nc(-c3cc4ccc5nc4n3CC(F)(F)CCC[C@@H]3C[C@H]3C(=O)N[C@@H]5C)n(C)c12 [Example 680, (2~{R},5~{R},7~{R})-14-[5-[(3~{S},4~{R})-3-amino-4-hydroxy-piperidine-1-carbonyl]-7-methoxy-1-methyl-benzimidazol-2-yl]-11,11-difluoro-2-methyl-3,13,19-triazatetracyclo[11.5.2.0^ {5,7}.0^{16,20}]icosa-1(19), 14,16(20),17-tetraen-4-one] | 34
COc1ccnc2c1C(=O)N[C@H](C)c1ccc3cc(-c4nc5cc(C(=O)N6CC[C@@H](OC)[C@@H](N)C6)cc(OC)c5n4C)n(c3n1)CCCCC2 [Example 630, (2~{R})-17-[5-[(3~{S),4~ {R})-3-amino-4-methoxy-piperidine-1-carbonyl]-7-methoxy-1-methyl-benzimidazol-2-yl]-6-methoxy-2-methyl-3,9,16,22-tetrazatetracyclo[14.5.2.0^ {5,10}.0^{19,23}] tricosa-1(22),5(10), 6,8,17,19(23),20-heptaen-4-one] | 122
COc1cc(C(=O)N2C[C@H](N)[C@@H]3CC[C@H]2C3)cc2nc(-c3cc4ccc5nc4n3CC(F)(F)CCCCC(C)(C)C(=O)N[C@@H]5C)n(C3CC3)c12 [Example 941, (11~{R})-17-[5-[(1~{S},4~{R}, 5~{R})-4-amino-2-azabicyclo [3.2.1]octane-2-carbonyl]-1-cyclopropyl-7-methoxy-benzimidazol-2-yl]-3,3-difluoro-8,8,11-trimethyl-1,10,19-triazatricyclo[10.5.2.0^{15,18}] nonadeca-12(19), 13,15(18),16-tetraen-9-one] | 68

Further compounds by falling IC50, results first:

IC50 [nM] | SMILES
97 | COc1cc(C(=O)N[C@H]2CNCC[C@@H]2F)cc2nc(-c3cc4ccc5nc4n3C[C@@H]3C[C@H]3CCc3ccccc3C(=O)N[C@@H]5C)n(C)c12 [Example 346, ~{N}-[(3~{S),4~{S})-4-fluoro-3-piperidyl]-7-methoxy-1-methyl-2-[(3~{R},5~{R},16~{R})-16-methyl-14-oxo-1,15,24-triazapentacyclo[15.5.2.0^{3,5}.0^{8,13}.0^ {20,23}]tetracosa-8,10,12,17(24),18,20(23),21-heptaen-22-yl]benzimidazole-5-carboxamide]
59 | COCC1(C)CCCCCCn2c(-c3nc4cc(C(=O)N5[C@H]6CC[C@@H]5[C@H](N)C6)cc(OC)c4n3C)cc3ccc(cc32)[C@@H](C)NC1=O (stereo partly drawn) [Example 341, (11~{R})-17-[5-[(1~{R},2~{R},4~{S})-2-amino-7-azabicyclo[2.2.1]heptane-7-carbonyl]-7-methoxy-1-methyl-benzimidazol-2-yl]-8-(methoxymethyl)-8,11-dimethyl-1,10-diazatricyclo[10.5.2.0^{15,18}]nonadeca-12(19),13,15(18),16-tetraen-9-one]
59 | C[C@H]1NC(=O)c2nn(C)nc2CCCCCn2c(-c3nc4cc(C(=O)N[C@H]5CNCC[C@@H]5F)c(F)cc4n3C)cc3ccc1nc32 [Example 546, 2-[(2~{R})-2,7-dimethyl-4-oxo-3,6,7,8,15,21-hexazatetracyclo[13.5.2.0^ {5,9}.0^{18,22}]docosa-1(21),5,8,16,18(22), 19-hexaen-16-yl]-6-fluoro-~{N}-[(3~{S},4~{S})-4-fluoro-3-piperidyl]-1-methyl-benzimidazole-5-carboxamide]
39 | COc1cc(C(=O)N2CC[C@@H](OC)[C@@H](N)C2)cc2nc(-c3cc4ccc5nc4n3CCCCC[C@]3(F)C[C@H]3C(=O)N[C@@H]5C)n(C)c12 [Example 689, (2~{R},5~{S},7~{S})-14-[5-[(3~{S},4~{R})-3-amino-4-methoxy-piperidine-1-carbonyl]-7-methoxy-1-methyl-benzimidazol-2-yl]-7-fluoro-2-methyl-3,13,19-triazatetracyclo[11.5.2.0^ {5,7}.0^{16,20}]icosa-1(19),14,16(20),17-tetraen-4-one]
36 | COc1cc(C(=O)N2CCC[C@@H](N)C2)cc2nc(-c3cc4ccc5nc4n3CCCCCCCC(=O)N[C@@H]5C)c(C)n12 [Example 301, (11~{R})-17-[7-[(3~{R})-3-aminopiperidine-1-carbonyl]-5-methoxy-3-methyl-imidazo[1,2-a]pyridin-2-yl]-11-methyl-1,10,19-triazatricyclo[10.5.2.0^{15,18}]nonadeca-12(19),13,15(18),16-tetraen-9-one]
23 | COc1cc(C(=O)N2[C@H]3CC[C@@H]2[C@H](N)C3)cc2nc(-c3cc4ccc5nc4n3CC(F)(F)CCC[C@@H]3C[C@H]3C(=O)N[C@@H]5C)n(C)c12 [Example 642, (2~{R},5~{R},7~{R})-14-[5-[(1~{R},2~{R},4~ {S})-2-amino-7-azabicyclo[2.2.1]heptane-7-carbonyl]-7-methoxy-1-methyl-benzimidazol-2-yl]-11,11-difluoro-2-methyl-3,13,19-triazatetracyclo [11.5.2.0^{5,7}.0^{16,20}] icosa-1(19),14,16(20), 17-tetraen-4-one]
